Assay results from ChEMBL document CHEMBL2074344, “Active efflux of the 5-HT(1A) receptor agonist flesinoxan via P-glycoprotein at the blood-brain barrier” (Eur J Pharm Sci, 2001).

What was measured:
[1] = molecular target: ATP-dependent translocase ABCB1 (Mus musculus, UniProt P21447); assay: TP_TRANSPORTER: increase in brain concentration in mdr1a(-/-) mouse; type: functional, organism-based; conditions: in vivo
[2] = molecular target: ATP-dependent translocase ABCB1 (Homo sapiens, UniProt P08183); assay: TP_TRANSPORTER: transepithelial transport (basal to apical) in MDR1-expressing LLC-PK1 cells; type: functional, cell-based; conditions: pig
Chain of ATP-dependent translocase ABCB1 (Homo sapiens, UniProt P08183) (P08183 whole entry): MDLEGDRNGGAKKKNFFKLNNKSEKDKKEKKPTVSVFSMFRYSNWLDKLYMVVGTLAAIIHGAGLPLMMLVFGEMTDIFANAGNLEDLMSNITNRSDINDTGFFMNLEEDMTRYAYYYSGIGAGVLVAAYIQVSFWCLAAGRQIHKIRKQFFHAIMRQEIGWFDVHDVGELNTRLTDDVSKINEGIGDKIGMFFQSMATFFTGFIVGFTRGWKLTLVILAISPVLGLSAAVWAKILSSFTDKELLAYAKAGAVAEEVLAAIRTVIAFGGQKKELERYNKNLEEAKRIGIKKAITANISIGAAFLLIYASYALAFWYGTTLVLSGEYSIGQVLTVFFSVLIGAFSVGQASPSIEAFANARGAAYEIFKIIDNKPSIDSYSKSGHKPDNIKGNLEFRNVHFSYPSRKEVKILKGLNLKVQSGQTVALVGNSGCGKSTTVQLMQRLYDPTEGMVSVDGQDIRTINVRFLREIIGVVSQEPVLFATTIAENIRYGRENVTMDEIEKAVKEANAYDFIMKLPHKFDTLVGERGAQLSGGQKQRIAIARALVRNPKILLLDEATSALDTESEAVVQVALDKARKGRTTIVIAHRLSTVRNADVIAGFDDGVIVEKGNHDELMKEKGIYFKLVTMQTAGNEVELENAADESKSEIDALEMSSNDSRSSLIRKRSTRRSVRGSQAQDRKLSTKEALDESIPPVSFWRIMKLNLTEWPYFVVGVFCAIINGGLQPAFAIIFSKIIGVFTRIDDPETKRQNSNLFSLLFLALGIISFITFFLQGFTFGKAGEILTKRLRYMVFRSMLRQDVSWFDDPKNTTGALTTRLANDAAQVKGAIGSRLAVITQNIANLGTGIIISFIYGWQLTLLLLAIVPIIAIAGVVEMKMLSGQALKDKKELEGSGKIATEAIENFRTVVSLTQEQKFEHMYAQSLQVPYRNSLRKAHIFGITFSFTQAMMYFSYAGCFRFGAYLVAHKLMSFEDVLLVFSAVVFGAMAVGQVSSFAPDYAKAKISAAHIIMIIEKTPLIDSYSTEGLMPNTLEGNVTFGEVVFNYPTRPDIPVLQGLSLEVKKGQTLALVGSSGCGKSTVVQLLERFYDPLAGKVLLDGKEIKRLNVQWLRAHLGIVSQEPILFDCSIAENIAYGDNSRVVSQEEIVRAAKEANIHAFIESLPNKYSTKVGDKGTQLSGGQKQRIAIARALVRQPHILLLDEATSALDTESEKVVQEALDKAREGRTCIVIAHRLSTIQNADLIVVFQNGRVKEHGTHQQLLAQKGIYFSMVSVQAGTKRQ

Chain of ATP-dependent translocase ABCB1 (Mus musculus, UniProt P21447) (P21447 whole entry): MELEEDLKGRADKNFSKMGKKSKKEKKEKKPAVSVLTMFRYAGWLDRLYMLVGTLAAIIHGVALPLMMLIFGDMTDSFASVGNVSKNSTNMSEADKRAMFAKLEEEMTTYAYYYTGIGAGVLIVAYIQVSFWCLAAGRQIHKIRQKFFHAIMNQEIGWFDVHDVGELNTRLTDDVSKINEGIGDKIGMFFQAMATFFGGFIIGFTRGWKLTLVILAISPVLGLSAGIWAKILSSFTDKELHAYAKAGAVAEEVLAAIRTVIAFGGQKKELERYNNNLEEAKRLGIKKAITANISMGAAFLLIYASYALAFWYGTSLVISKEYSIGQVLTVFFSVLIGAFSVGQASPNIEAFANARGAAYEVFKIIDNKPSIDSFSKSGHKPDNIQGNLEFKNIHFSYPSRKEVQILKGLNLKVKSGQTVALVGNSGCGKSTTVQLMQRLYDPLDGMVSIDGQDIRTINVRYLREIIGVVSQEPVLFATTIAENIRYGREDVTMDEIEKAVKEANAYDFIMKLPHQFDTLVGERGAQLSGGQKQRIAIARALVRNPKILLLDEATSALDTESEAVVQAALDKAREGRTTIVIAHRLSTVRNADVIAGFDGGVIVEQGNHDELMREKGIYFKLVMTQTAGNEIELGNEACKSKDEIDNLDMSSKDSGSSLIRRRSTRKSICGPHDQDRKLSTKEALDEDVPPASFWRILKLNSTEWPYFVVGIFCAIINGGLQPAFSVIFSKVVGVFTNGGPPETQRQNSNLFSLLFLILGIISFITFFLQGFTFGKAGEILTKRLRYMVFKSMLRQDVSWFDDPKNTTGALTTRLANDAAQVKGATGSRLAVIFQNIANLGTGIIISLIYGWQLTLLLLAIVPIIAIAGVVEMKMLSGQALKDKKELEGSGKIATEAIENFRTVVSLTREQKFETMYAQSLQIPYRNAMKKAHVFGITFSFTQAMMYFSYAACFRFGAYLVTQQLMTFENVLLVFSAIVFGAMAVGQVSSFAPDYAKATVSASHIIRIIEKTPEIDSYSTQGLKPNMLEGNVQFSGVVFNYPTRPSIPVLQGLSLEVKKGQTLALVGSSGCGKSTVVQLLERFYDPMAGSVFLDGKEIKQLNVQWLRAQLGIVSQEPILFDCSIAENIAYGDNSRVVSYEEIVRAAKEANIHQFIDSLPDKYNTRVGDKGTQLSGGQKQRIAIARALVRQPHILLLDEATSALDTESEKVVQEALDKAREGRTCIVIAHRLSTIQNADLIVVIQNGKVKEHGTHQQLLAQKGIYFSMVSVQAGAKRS

- Activity [1]: substrate [+]
- Activity [2]: substrate [+]
SMILES: O=C(NCCN1CCN(c2cccc3c2OC[C@H](CO)O3)CC1)c1ccc(F)cc1 [FLESINOXAN]
